Legend:
5-lipoxygenase = molecular target: T1, 5-lipoxygenase (Rattus norvegicus, UniProt P12527); assay: inhibition of 5-HETE synthesis by rat glycogen elicited polymorphonuclear leukocytes; format: cell-based; settings: 10 μM; rat PMN; negative = potentiation of 5-HETE synthesis; read-out: % Inhibition of 5-LO (as 5-HETE)
T1 construct: Peritoneal PMN are obtained from female Wistar rats (150-250 g); endogenous in cells; host or cells: rat glycogen-elicited peritoneal polymorphonuclear leukocytes, intact
T1 sequence (P12527 1-673): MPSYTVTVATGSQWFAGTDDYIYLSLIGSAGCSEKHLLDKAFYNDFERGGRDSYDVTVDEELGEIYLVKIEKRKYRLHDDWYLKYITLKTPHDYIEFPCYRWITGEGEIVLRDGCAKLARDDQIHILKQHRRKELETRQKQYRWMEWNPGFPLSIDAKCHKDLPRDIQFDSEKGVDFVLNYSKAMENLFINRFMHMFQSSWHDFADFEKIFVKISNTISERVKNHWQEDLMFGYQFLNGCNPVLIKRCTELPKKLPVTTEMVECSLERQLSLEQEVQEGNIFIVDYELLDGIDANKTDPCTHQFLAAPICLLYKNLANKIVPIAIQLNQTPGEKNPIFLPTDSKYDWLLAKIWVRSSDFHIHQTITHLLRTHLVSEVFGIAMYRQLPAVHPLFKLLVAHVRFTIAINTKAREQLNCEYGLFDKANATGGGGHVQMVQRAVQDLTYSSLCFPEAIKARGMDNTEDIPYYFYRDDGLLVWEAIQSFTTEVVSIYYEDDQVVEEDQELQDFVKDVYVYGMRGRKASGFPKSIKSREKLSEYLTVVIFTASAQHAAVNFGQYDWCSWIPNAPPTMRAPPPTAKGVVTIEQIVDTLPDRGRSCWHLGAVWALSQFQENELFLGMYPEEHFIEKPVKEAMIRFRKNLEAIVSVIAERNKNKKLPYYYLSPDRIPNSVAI
Procedure, shortened: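 Peritoneal PMN from female Wistar rats given i.p. glycogen 24 h earlier were preincubated with compound for 10 min at 37° C (2×10^7 cells/ml, 10 mM L-cysteine). They were then stimulated 10 min with 10 μM A23187 plus 0.5 μM [14C]arachidonic acid. 5-HETE was separated by TLC and quantified by scintillation.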

carrageenan paw edema = assay: rat carrageenan paw edema assay; format: in vivo; settings: 1 hour prior to carrageenan, rat
Method: The compounds of the invention are further tested in the rat carrageenan paw edema assay to determine their ability to inhibit the acute inflammatory response.
140-180 gm male Sprague-Dawley rats, in groups of 6 animals are injected subcutaneously in the right paw with 0.1 ml of 1% carrageenan at zero time. Mercury plethysmographic readings (ml) of the paw are made at zero time and 3 hours later. Test compounds are suspended or dissolved in 0.5% methylcellulose and given perorally 1 hour prior to carrageenan administration.
The increase in paw volume (edema in ml.) produced by the carrageenan is measured. […] Unpaired Student's t-test is used to determine statistical significance.

LTD4 = molecular target: T2, LTD4 (Cavia porcellus, UniProt Q2NNR5); assay: inhibition of LTD4-induced bronchospasm in guinea pigs; format: in vivo; settings: 25 mg/kg intraduodenally, 10 minutes before LTD4; guinea pig
T2 construct: isolated guinea pig trachea; from tissue; host or cells: guinea pig tracheal rings
T2 sequence (Q2NNR5 1-340): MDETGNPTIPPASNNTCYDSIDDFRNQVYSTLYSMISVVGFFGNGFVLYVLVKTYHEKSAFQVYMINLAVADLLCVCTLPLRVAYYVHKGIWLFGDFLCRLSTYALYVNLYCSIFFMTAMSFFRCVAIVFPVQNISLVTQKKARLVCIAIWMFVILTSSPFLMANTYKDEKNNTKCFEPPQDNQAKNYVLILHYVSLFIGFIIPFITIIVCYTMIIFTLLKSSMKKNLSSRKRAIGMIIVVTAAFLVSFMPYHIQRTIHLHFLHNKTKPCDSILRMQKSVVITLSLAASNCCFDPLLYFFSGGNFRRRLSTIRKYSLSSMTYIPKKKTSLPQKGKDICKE
Method: The assay of this Example measures the in vivo ability of the compounds of the invention to inhibit the bronchospasm induced in guinea pigs by the exogenously administered leukotrienes C4 and/or D4.
Male Hartley strain guinea pigs (350-600 g) are anesthetized with pentobarbital sodium (50 mg/kg, i.p.). The jugular vein is cannulated for injection of drugs and the carotid artery for monitoring blood pressure. The trachea is cannulated for artificial ventilation by a miniature Starling pump and for indirect measurement of respiratory volume changes. The animals are then pretreated with succinylcholine (2 mg/kg i.v.) and indomethacin (10 mg/kg i.v.) in trizma 8.3 buffer, 9 minutes prior to leukotriene challenge. Submaximal bronchoconstrictor responses are established in control animals by varying the dose-levels of leukotriene. Intravenous dose-levels for LTC4 range from 0.4 to 0.6 μg/kg and for LTD4 the range is from 0.3 to 0.5 μg/kg. The aerosol bronchoprovocation dose for LTC4 is generated from 1.6 μM solution and for LTD4 from a 2.0 μM solution.
Test drugs (dissolved in a solvent such as propylene glycol, polyethylene glycol 400 or saline) are administered either intraduodenally, by aerosol or intragastrically at 2 or 10 minutes before induction of bronchospasm by administration of either LTC4 or LTD4 at the predetermined dose-levels. Aerosols of soluble drugs or leukotrienes are produced in-line for 10 seconds only by actuation of an ultrasonic nebulizer (Monaghan). Aerosolized drug dosage is expressed in terms of solution concentration and by a fixed aerosol exposure time (approximately 10 seconds). Control animals receive solvent (2 ml/kg i.d. or appropriate aerosol) in place of drug.
Respiratory volume changes are determined by a calibrated piston whose travel is recorded, via a linear transducer, on a Beckman Dynograph recorder. Maximal bronchoconstrictor volume is determined by clamping off the trachea at the end of the experiment. Overflow volumes at 1,3 and 5 minutes are obtained from the recorded charts.
Area under the volume overflow curve (AUC) is estimated, using the overflow values at 1,3 and 5 minutes, and expressed as a percentage of the maximal overflow AUC (equation 1): [formula] Drug effects are reported as percent inhibition of % max AUC values obtained from appropriate control animals (equation 2): [formula]
Student's t-test for unpaired data is used to determine statistical signifiance (p<0.05). IC50 values can also be determined by inverse prediction from linear regression liens through points between 10 and 90% inhibition.

cyclooxygenase = assay: inhibition of synthesis of cyclooxygenase products TxB2 and PGE2 (rat polymorphonuclear leukocytes); format: cell-based; settings: 10 μM, rat PMN; for % Inhibition of CO (as PGE2): negative = potentiation of PGE2 synthesis
Procedure, shortened: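 Glycogen-elicited peritoneal PMN from female Wistar rats, 2×10^7 cells/ml in HBSS with Ca^++, Mg^++ and 10 mM L-cysteine, preincubated with compound 10 min at 37° C. Stimulated 10 min with A23187 (10 μM) plus 0.5 μM [14C] arachidonic acid; TxB2 and PGE2 quantified by TLC, autoradiography and scintillation counting.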

[1] = test system: acute gastroirritation induced by naproxen; assay: cytoprotective activity against NSAID (naproxen)-induced acute gastroirritation in rats; format: in vivo, rat; settings: drug 100 mg/kg peroral 1 hour before naproxen 25 mg/kg
Excerpt: The assay of Example 44 is also used to measure the cytoprotective activity of the compounds against acute gastroirritation induced by a nonsteroidal anti-inflammatory drug (NSAID).

pleural inflammation = assay: reverse passive Arthus pleurisy assay, pleural inflammation; format: in vivo; settings: rat
Method: (§1) The compounds of the invention are further tested in the reverse passive Arthus pleurisy assay to evaluate their effectiveness in inflammatory mediator release and/or the fluid and cellular phases of an inflammatory response.
(§2) A reverse passive Arthus reaction is induced in the pleural cavity of male Lewis rats (150-200 g; fasted overnight prior to use) by the intravenous administration of bovine serum albumin (BSA; 4 mg/0.2 ml) followed 30 minutes later by the injection of rabbit anti-BSA (1 mg/0.2 ml; lyophilized IgG fraction; Organon Teknika, West Chester, PA) into the right pleural space under halothane anesthesia. Drugs or vehicle (0.5% Tween-80) control are administered orally in a volume of 1 ml/100 g body weight at 1 hour prior to the anti-BSA. Animals are sacrificed at either the time of peak eicosanoid production (i.e. 5 minutes after anti-BSA for immunoreactive TxB2, 10 minutes for immunoreactive LTB4, 20 minutes for immunoreactive LTC4) or at the time of peak neutrophil infiltration (4 hours after anti-BSA) by CO2 inhalation. The pleural cavity is then exposed, the fluid exudate removed by gentle vacuum aspiration and the volume of exudate is recorded. For the determination of cellular infiltration, the pleural cavity is rinsed with 3 ml of 0.1% EDTA in sterile saline, and the recovered wash is pooled with the exudate. Cell number is determined on a model ZBI Coulter counter. For determination of eicosanoid production, undiluted pleural exudate is microfuged and the supernatant is extracted with ethanol (8-10 times volume). Extracts are either stored at -20° C., or are evaporated to dryness under a stream of N2 and reconstituted in radioimmunoassay (RIA) buffer.
(§3) Inflammatory cells are expressed as 10^6 cells/ml, pleural exudate is expressed as ml of fluid, and the amount of eicosanoids in the pleural cavity is expressed as ng/ml of exudate. Mean±S.E.M. is determined for each group. Percent inhibition (% I) of cell number, exudate volume and eicosanoid production is calculated for vehicle-treated control groups, and the responses in drug-treated rats are then expressed as the mean $ I of control.

[2] = test system: inflammatory mediator release; assay: reverse passive Arthus pleurisy assay, inflammatory mediator release; format: in vivo, rat; settings: rat
Method: as §1
as §2, with “Drugs or vehicle (0.5% Tween-80) control are administered orally in a volume of 1 ml/100 g body weight at 1 hour prior to the anti-BSA.” left out
Eicosanoids are quantitated by RIA according to the procedure specified by the RIA kit manufacturer (Advanced Magnetics, Cambridge, MA). Briefly, 100 μl of ^3 H-labeled eicosanoid and 100 μl of specific antibody are sequentially added to 100 μl of extracted pleural exudate in BGG-phosphate buffer which contains 0.01 M phosphate, 0.1% bovine gamma globulin and 0.1% sodium azide at pH 7.0. Antibody-bound eicosanoid is separated form unbound eicosanoid by the addition of 750 μl of dextran (0.4%)-coated charcoal (0.4% Norit A) containing 0.1% sodium azide. The mixture is centrifuged at 2000 RPM at 5° C. for 15 minutes to pellet the charcoal and adsorbed unbound eicosanoid. Antibody-bound labeled eicosanoid is quantitated by counting in a liquid scintillation counter, and is correlated to concentration by a standard curve.
as §3

Row | Structure (SMILES) | inhibition at 10 µM (5-lipoxygenase) | % Inhibition (LTD4-induced bronchospasm) (LTD4) | % Inhibition at 50 mg/kg (peroral) (carrageenan paw edema) | % Inhibition of CO (as TxB2) (cyclooxygenase) | % Inhibition of CO (as PGE2) (cyclooxygenase) | % of Rats With Lesions [1] | Comments (protection) [1] | % Inh Cellular Influx (pleural inflammation; 8 mg/kg p.o.) | ED30 Fluid Exudation (pleural inflammation; p.o.) | Oral ED50 (95% C.L.) (carrageenan paw edema; oral, 95% C.L. in parentheses, 180 min) | % Inh LTB4 ([2]; 4 mg/kg p.o.) | ED50 TxB2 ([2]; p.o., 1 hour prior to anti-BSA, 5 min)
1 | CC(C(=O)O)c1ccc2cc(OCc3ccccc3)ccc2c1 (stereo not drawn) [Example 2, α-Methyl-6-(phenylmethoxy)-2-naphthaleneacetic acid] | 84% | -76% | 24% | 6% | -26% |  |  |  |  |  |  | 
2 | CC(C(=O)O)c1ccc2cc(OCc3ccc4ccccc4n3)ccc2c1 (stereo not drawn) [Example 1, α-Methyl-6-(2-quinolinylmethoxy)-2-naphthaleneacetic acid] | 100% | 75% | 42% | 28% | -37% |  |  |  |  |  |  | 
3 | COc1ccc2c(c1)c(CC(=O)O)c(C)n2C(=O)c1ccc(Cl)cc1 [Indomethacin] |  |  |  |  |  |  |  | 19% | 2.5 mg/kg | 3.7 (0.6, 23.8) mg/kg | 12% | 0.16 mg/kg
4 | CC(C(=O)O)c1ccc2cc(OCc3nc4ccccc4n3C)ccc2c1 (stereo not drawn) [Example 3, α-Methyl-6-[(1-methyl-1H-benzimidazol-2-yl)-methoxy]-2-naphthaleneacetic acid] | 24% | 80% | 32% | 15% | -29% |  |  |  |  |  |  | 

Second part, led by results:

Row | inhibition at 10 µM (5-lipoxygenase) | % Inhibition (LTD4-induced bronchospasm) (LTD4) | Structure (SMILES) | % Inhibition at 50 mg/kg (peroral) (carrageenan paw edema) | % Inhibition of CO (as TxB2) (cyclooxygenase) | % Inhibition of CO (as PGE2) (cyclooxygenase) | % of Rats With Lesions [1] | Comments (protection) [1] | % Inh Cellular Influx (pleural inflammation; 8 mg/kg p.o.) | ED30 Fluid Exudation (pleural inflammation; p.o.) | Oral ED50 (95% C.L.) (carrageenan paw edema; oral, 95% C.L. in parentheses, 180 min) | % Inh LTB4 ([2]; 4 mg/kg p.o.) | ED50 TxB2 ([2]; p.o., 1 hour prior to anti-BSA, 5 min)
5 | 28% |  | CCCCOc1ccc2cc(C(C)C(=O)O)ccc2c1 (stereo not drawn) [Example 11, α-Methyl-6-(butyloxy)-2-naphthaleneacetic acid] |  |  | -3% | 50.0% | moderate protection |  |  |  |  | 
6 | 81% |  | CCCCCCOc1ccc2cc(C(C)C(=O)O)ccc2c1 (stereo not drawn) [Example 10, α-Methyl-6-(hexyloxy)-2-naphthaleneacetic acid] |  |  | -5% | 37.5% | protection |  |  |  |  | 
7 | 82% | 52% | CC(C(=O)O)c1ccc2cc(OCc3ccccn3)ccc2c1 (stereo not drawn) [Example 4, α-Methyl-6-(2-pyridinylmethoxy)-2-naphthaleneacetic acid] | 30% | 12% | 18% |  |  |  |  |  |  | 
